# In the NIST ThermoML archive (doi:10.1021/je034107o):
# Numbers after ± are expanded uncertainties.
# Conditions: Liquid
Structure (SMILES),vapor or sublimation pressure (498.15 K) [kPa],vapor or sublimation pressure (523.15 K) [kPa],vapor or sublimation pressure (553.15 K) [kPa],vapor or sublimation pressure (583.15 K) [kPa],vapor or sublimation pressure (613.15 K) [kPa],vapor or sublimation pressure (638.15 K) [kPa],vapor or sublimation pressure (653.15 K) [kPa]
CCc1ccccc1 [ethylbenzene],681 ± 37,1027 ± 54,1601 ± 83,2387 ± 120,3451 ± 180,–,–
c1ccc2ncccc2c1 [quinoline],–,135 ± 8,245 ± 13,416 ± 22,668 ± 35,955 ± 49,1166 ± 60
